Data as given in patent publication US20030206914A1, “Synthetic antigens for CD1-restricted immune responses” (priority 1997, published 2003).
Entries after “also recorded” stand apart in the source; their conditions may differ. Like-named read-outs stand apart in the source and are kept apart here.

Experiments:
[1] = test system: CD8-1 T cell line (CD1c-restricted αβ); assay: CD8-1 T cell line response; format: cell-based, human
CD1b = CD1b (Homo sapiens, UniProt P29016); assay: Binding of glycolipid to CD1b
Chain of CD1b (P61769 21-119): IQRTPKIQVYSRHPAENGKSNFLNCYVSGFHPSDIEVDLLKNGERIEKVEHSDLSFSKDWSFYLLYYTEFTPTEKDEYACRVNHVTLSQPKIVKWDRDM
Chain of CD1b (P29016 18-303): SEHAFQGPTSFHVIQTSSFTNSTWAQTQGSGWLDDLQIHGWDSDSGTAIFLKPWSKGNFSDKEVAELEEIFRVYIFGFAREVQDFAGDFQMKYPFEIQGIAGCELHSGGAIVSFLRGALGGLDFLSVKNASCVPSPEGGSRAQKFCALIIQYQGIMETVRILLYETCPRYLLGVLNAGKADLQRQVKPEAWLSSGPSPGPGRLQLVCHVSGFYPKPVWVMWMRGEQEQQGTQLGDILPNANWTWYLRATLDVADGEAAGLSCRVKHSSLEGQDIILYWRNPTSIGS
Description: Thus, CD1b binds to both natural and synthetic GMM but not to an analog that has only one long alkyl chain instead of two short alkyl chains.

[2] = test system: LDN5 T cell line (CD1b-restricted); format: cell-based, human
[3] = test system: CD1b transfected C1R lymphoblastoid target cells; assay: LDN5 cytolysis assay, CD1b transfected targets; format: cell-based, human; conditions: E:T 25:1; targets cultured with antigen (0.5 mg/ml purified glycolipid; 5 μg/ml synthetic GMM)
Description: (§1) There was no response in the absence of antigen.
(§2) Similarly treated mock, CD1a or CD1c transfected cells were not lysed (FIG. 2B). The Na adduct of the fully synthetic GMM containing C32 mycolic acid was detected by ESI-MS analysis to be a single ion peak at m/z 681.6 (FIG. 2C). This synthetic GMM antigen lacks long chain length (compared with C80 mycolic acids of mycobacteria), cyclopropanation, double bonds and R groups, ruling out all of these natural chemical variations of the mycolic acid moiety as necessary antigenic determinants. The discovery of a synthetic CD1-restricted antigen with a simple and well defined structure allowed the systematic study of individual molecular features of the antigen that determined the specificity of the T cell response.
(§3) LDN5 was derived from the same human leprosy skin lesion that gave rise to the previously described LAM reactive T cell line LDN4 (P. A. Sieling, et al. (1995) Science 269:227). Cultures were stimulated initially with autologous GM-CSF and IL-4 treated CD1^+ monocytes and M. leprae sonicate. After establishment of LDN5, cultures were maintained in IL-2 supplemented medium and periodically stimulated with allogenic CD1^+ APCs and M. phlei sonicate (X/1000) containing GMM. […] T cell culture methods, proliferation assays and cytolysis assays were carried out according to the methods described in E. M. Beckman, et al. (1996) J. Immunol. […]

[4] = test system: mock, CD1a or CD1c transfected C1R cells; assay: LDN5 cytolysis assay, control transfectants; format: cell-based, human; conditions: E:T 25:1; similarly treated with antigen
Description: as §1, §2, §3

[5] = test system: DN1 T cell line (CD1b-restricted, specific for free mycolic acid); assay: DN1 T cell line response; format: cell-based, human
Description: The role of the carbohydrate moiety of the glycolipid in T cell recognition was separately evaluated.
LDN5 was derived from the same human leprosy skin lesion that gave rise to the previously described LAM reactive T cell line LDN4 (P. A. Sieling, et al. (1995) Science 269:227). Cultures were stimulated initially with autologous GM-CSF and IL-4 treated CD1^+ monocytes and M. leprae sonicate. After establishment of LDN5, cultures were maintained in IL-2 supplemented medium and periodically stimulated with allogenic CD1^+ APCs and M. phlei sonicate (X/1000) containing GMM. […] T cell culture methods, proliferation assays and cytolysis assays were carried out according to the methods described in E. M. Beckman, et al. (1996) J. Immunol. 157:2795. All bioassays were done in triplicate and reported as mean +/−standard deviation.

APCs = assay: Uptake and processing of CD1b-presented antigens by APCs; format: cell-based
Description: The uptake and processing pathway for CD1b-presented antigens was also defined. Several steps in the presentation of two related classes of CD1b-presented antigens, free and glycosylated mycolates, were examined. […] Thus, larger lipids, such as trehalose dimycolate cannot be broken down into GMM within cells. Given that the hydrophobic groove can accommodate approximately 32 CH2 units when measured in crystalline form, it is likely that the CD1 protein can open to encompass larger alkyl chains or that the chains can protrude from the groove.

[6] = test system: 14 other T cell lines including SP-F3 and DN6
[7] = test system: CD1c-restricted T cell lines; assay: Recognition by other CD1c-restricted T cell lines from different donors; format: cell-based, human; conditions: lines derived from different donors
Description: Based on a survey of known mycobacterial phospholipids, the leading candidate structure for this antigen was that of a glycosyl phosphopolyprenol (GPP). See, Besra, G. S., et al. (1994) Proc. Natl. Acad. Sci. USA 91:12735-12739. The fragmentation pattern was consistent with the identification of the antigenic M. avium as a GPP, presuming that the lipid of m/z 420 was the hexaprenyl component of a fully saturated hexose phosphohexaprenol. To assess this, the ability of the T cell line CD8-1 to recognize purified mycobacterial GPPs was tested. The structure of Myc-PL, a mannosyl phosphopolyprenol esterified to a mycolic acid, had been determined in detail. Besra, G. S., et al. (1994) supra. Pure myc-PL was cleaved with strong base to yield free mycolate and mannosyl phosphoheptaprenol (MPP). Besra, G. S., et al. (1994) supra. […] Rush, J. S., et al.(1993) J. Biol. Chem. 268:13110-13117. […] Thus, these studies established that CD1c-restricted T cells specifically recognized GPPs from four different sources, including both natural and synthetic analogs of this structure.
All three CD1-restricted lines preferentially recognized the α-saturated MPDs typical of eukaryotes more potently than the α-unsaturated GPPs typical of prokaryotes. Krag, S. S. (1998) Biochem. Biophys. Res. Comm. 243:1-5. […]

[8] = test system: CD1a, CD1b and MHC class I restricted T cell lines; assay: Stimulation of CD1a, CD1b and MHC class I restricted T cell lines (mitogenicity control); format: cell-based
[9] = cytokine activated macrophages / CD1+ APCs

## CC(C)=CCCC(C)=CCCC(C)=CCCC(C)=CCCC(C)=CCCC(C)=CCCC(C)=CCOP(=O)(O)O[C@@H]1O[C@H](CO)[C@@H](O)[C@H](O)[C@@H]1O (relative stereo) [semi-synthetic MPP, β-D-mannopyranosyl-1-monophosphoryl-(poly-cis, di-trans, α-unsaturated) heptaprenol]
[1]
  CD8-1 response to antigen: responded significantly

## CC(C)=CCCC(C)=CCCC(C)=CCCC(C)=CCCC(C)=CCCC(C)=CCCC(C)=CCCC(C)=CCCC(C)=CCCC(C)=CCCC(C)=CCCC(C)=CCCC(C)=CCCC(C)=CCCC(C)=CCCC(C)=CCCC(C)=CCCC(C)=CCCC(C)CCOP(=O)(O)O[C@@H]1O[C@H](CO)[C@@H](O)[C@H](O)[C@@H]1O (relative stereo) [β-D-mannopyranosyl-1-monophosphoryl-(poly-cis, di-trans, α-saturated) nondecaprenol]
[1]
  CD8-1 response to antigen: responded significantly

## CCCCCCCCCCCCCCCCCCCCCCCCCCCCCC(=O)OC[C@H]1OC(O)[C@H](O)[C@@H](O)[C@@H]1O (stereo partly drawn) [G6T, Glucose-6-o-triacontanoate]
CD1b; pH not given
  binding to CD1b: did not bind to CD1b

## CCCCCCCCCCCCCC(O)CC(=O)OC[C@@H](O)[C@@H](O)[C@H](O)[C@@H](O)C=O (stereo partly drawn) [glucose 6-O-3-hydroxypalmitate]
[2]; [9]
  LDN5 proliferative response to antigen: did not respond

## galactose monomycolate
[2]
  LDN5 proliferative response to antigen: responded very weakly or not at all

## glucose monomycolate [GMM]
[2]
  LDN5 proliferative response to antigen: stimulated LDN5; also recorded: proliferated at similar doses
[3]
  lysis of CD1b transfected C1R target cells by LDN5: lysed CD1b transfected C1R lymphoblastoid target cells
[4]
  lysis of mock, CD1a or CD1c transfectants by LDN5: not similarly treated mock, CD1a or CD1c transfectants
[5]
  DN1 response to antigen: not to GMM
CD1b; pH 4.0
  binding to CD1b at pH 4.0: occurring at pH 4.0
CD1b; pH 7.0
  binding to CD1b at pH 7.0: not at pH 7.0
APCs
  T cell recognition after treating APCs with fixing or endosome pH neutralizing agents: blocked by agents that fix APC membranes or neutralized the pH of endosomes
  rate of uptake by APCs: taken up by APCs at the same rate
[6]
  proliferative response of other T cell lines: not 14 other T cell lines tested

## mannose monomycolate
[2]
  LDN5 proliferative response to antigen: responded very weakly or not at all

## mannosyl phosphodolichol [MPD]
[1]
  CD8-1 response to antigen: recognized the 2,3 dihydro analog, mannosyl phosphodolichol (MPD), at much lower concentration
[7]
  recognition by two other CD1c-restricted T cell lines: recognized MPD
[8]
  stimulation of CD1a, CD1b and MHC class I restricted T cell lines: did not stimulate

## mannosyl phosphoheptaprenol [MPP]
[1]
  CD8-1 response to antigen: did respond to the pure MPP

## trehalose dimycolate [TDM, reference compound]
APCs
  cleavage by APCs to antigenic free mycolates or GMM: unable to cleave

## α,α trehalose dimycolate [purified cord factors from M. phlei, reference compound]
[2]; [9]
  LDN5 proliferative response to antigen: not antigenic for LDN5
